Measurements as given in BigSolDB 2.1.

Nc1cccc(C(=O)O)c1O
solubility (mole fraction)
Settings | 293.2 K | 298.2 K | 303.2 K | 308.2 K | 313.2 K
in ethanol | 0.000186 | 0.000238 | 0.000285 | 0.000332 | 0.000386
in water | 0.000113 | 0.000126 | 0.000141 | 0.00016 | 0.000178
